The source of these data is patent US4230703A, “11-Oxodibenz(b,e)azepines” (priority 1977, dated 1980).

One may read the ED50 as the midpoint of the dose-response relation. For orientation: LD50 means the dose expected to kill half of the subjects tested. Read a high LD50 as lower toxicity.

The test system of data set [1] is volume of edema of left hind paw (carrageenin). In words: Test on anti-inflammatory activity (carrageenin hind paw edema). Type of data set: in vivo, Wistar male rats. The settings on record: Rattus norvegicus, po, 3 h, p.o., read-out: Percent inhibition (average value ± standard error). As to the method:
In each group, the volumes of the left hind paw were measured by a volume differential meter (made by Ugo Basile Company), and 0.1 ml of a 1% suspension of carrageenin in distilled water was subcutaneously injected into the plantar tissues of the left hind paw. One hour later, each of the test compounds was suspended in the same vehicle as used in the test on analgesic activity and administered orally to the rats. Three hours later, the volumes of the left hind paw were again measured. The increase in volume of the left hind paw of each rat in each group (the volume of edema) was measured. The percent edema inhibition on the group administered with the test compounds based on the control group administered only with the vehicle was calculated in accordance with the following equation, and the results are shown in Table 2. [formula]

For data set [2], the system named is number of writhings (0.6% acetic acid, intraperitoneal). Nature of the data set: Test on analgesic activity (acetic acid-induced writhing). To be noted: Mus musculus, po, mice; parentheses = 95% confidence limits. Type of data set: in vivo, mice (ddY, male). The procedure: Male mice (ddY) with a body weight of 18 to 22 g were used in groups each consisting of 10 mice. Each of the compounds was suspended in an aqueous solution of 0.5% of carboxymethyl cellulose and 2.0% of Tween 80, and the resulting suspension was administered orally to the mice through a tube. One hour after the administration, 0.6% acetic acid was administered intraperitoneally in an amount of 0.1 ml per 10 g of body weight, and the number of writhings which occurred in the mice during a period of 20 minutes after the administration was measured. The percent inhibition on a group administered with the test compound based on the control group administered only with the vehicle was calculated from the following equation, and the ED50 values of the test compounds were calculated from the percent inhibition in accordance with the method of Litchfield-Wilcoxon. [formula]
The parenthesized numerals show 95% confidence limits.
A general note: In writhing tests, fewer writhes than in controls are read as antinociception.

The subject of a further data set is SD male and female rats. Nature of the data set: in vivo. The settings on record: oral. From the text: (§1) Each of the test compounds was suspended in a physiological saline solution having dissolved therein 2% of Tween 80, and orally administered through a tube to groups of SD male and female rats (male: 130 to 150 g, female: 120 to 140 g) each group consisting of 8 rats. The rats were then observed for 2 weeks.

The next data set is described as follows: in vivo. The settings on record: rat, in vivo, po.
Text: as §1

Molecules are shown by their SMILES.

With `CN1Cc2ccccc2C(=O)c2cc(CC(=O)OCC3COC(C)(C)O3)ccc21` (centres unmarked) [L, 2,2-dimethyl-1,3-dioxolan-5-yl methyl 5,6-dihydro-5-methyl-11-oxodibenz[b,e]azepine-2-acetate], in data set [1], the inhibition in vivo at 30 mg/kg amounted to 17.6 ± 5.1% and the inhibition in vivo at 90 mg/kg came to 33.3 ± 4%.
With `CCCCC1C(=O)N(c2ccccc2)N(c2ccccc2)C1=O` [Phenylbutazone, phenylbutazone, reference compound], in data set [1], the inhibition in vivo at 30 mg/kg is 20.7 ± 2.4% and the inhibition in vivo at 90 mg/kg stood at 34.2 ± 5.3%. In data set [2], the ED50 was determined as 130 mg/kg.
With `CCN1Cc2ccccc2C(=O)c2cc(CC(=O)O)ccc21` [I, 5,6-dihydro-5-ethyl-11-oxodibenz[b,e]azepine-2-acetic acid], in data set [1], the inhibition in vivo at 10 mg/kg was determined as 20.2 ± 6.6%, the inhibition in vivo at 30 mg/kg was 25.6 ± 5.8% and the inhibition in vivo at 90 mg/kg stood at 35.1 ± 8.2%. Also, the ED50 in data set [2] is 15.9 mg/kg.
On to `CC(C(=O)O)c1ccc2c(c1)C(=O)c1ccccc1CN2C` (centres unmarked) [B, 2-(5,6-dihydro-5-methyl-11-oxodibenz[b,e]azepin-2-yl)propionic acid], for which, in data set [1], the inhibition in vivo at 30 mg/kg came out at 23.2 ± 3.2% and the inhibition in vivo at 90 mg/kg turned out to be 38.6 ± 5.3%. The ED50 in data set [2] worked out at 26 mg/kg.
For the compound `CN1Cc2ccccc2C(=O)c2c(CC(=O)O)cccc21` [C, 5,6-dihydro-5-methyl-11-oxodibenz[b,e]azepine-1-acetic acid], the inhibition in vivo at 90 mg/kg in data set [1] was determined as 11.4 ± 12.7%. For the same compound, in data set [1] (180 mg/kg), the inhibition in vivo at 180 mg/kg was determined as 28.6 ± 8.3%.
As to `CCCN1Cc2ccccc2C(=O)c2cc(CC(=O)O)ccc21` [J, 5,6-dihydro-5-n-propyl-11-oxodibenz[b,e]azepine-2-acetic acid], in data set [1], the inhibition in vivo at 30 mg/kg is 18.6 ± 5.2% and the inhibition in vivo at 90 mg/kg was 30.4 ± 4.8%. Besides, in data set [2], the ED50 was found to be 15.5 mg/kg.
In the case of `CN1Cc2cc(Cl)ccc2C(=O)c2cc(CC(=O)O)ccc21` [H, 5,6-dihydro-5-methyl-8-chloro-11-oxodibenz[b,e]azepine-2-acetic acid], in data set [1], the inhibition in vivo at 30 mg/kg was 26.8 ± 7.3% and the inhibition in vivo at 90 mg/kg was determined as 34.9 ± 6.5%.
Consider `CNC(=O)Cc1ccc2c(c1)C(=O)c1ccccc1CN2C` [Compound E, 5,6-dihydro-5-methyl-11-oxodibenz[b,e]azepine-2-acetic acid methyl amide], for which, in data set [1], the inhibition in vivo at 30 mg/kg is 11.3 ± 4.3% and the inhibition in vivo at 90 mg/kg came to 44.8 ± 7.5%. The ED50 in data set [2] was 46.5 mg/kg.
For `CN1Cc2ccccc2C(=O)c2cc(CC(=O)O)cc(Cl)c21` [G, 5,6-dihydro-4-chloro-5-methyl-11-oxodibenz[b,e]azepine-2-acetic acid], in data set [1], the inhibition in vivo at 30 mg/kg is 23.8 ± 6.9% and the inhibition in vivo at 90 mg/kg amounted to 35.4 ± 5.5%.
As to `CN1Cc2ccccc2C(=O)c2cc(CC(=O)O)ccc21` [A, 5,6-dihydro-5-methyl-11-oxodibenz[b,e]azepine-2-acetic acid], in data set [1], the inhibition in vivo at 10 mg/kg came to 28.5 ± 2.8%, the inhibition in vivo at 30 mg/kg worked out at 30.4 ± 4.4% and the inhibition in vivo at 90 mg/kg amounted to 43.9 ± 6.6%. Besides, the ED50 in data set [2] was 9 mg/kg.
Turning to `O=C(O)Cc1ccc2c(c1)C(=O)c1ccccc1CN2` [M, 5,6-dihydro-11-oxodibenz[b,e]azepine-2-acetic acid], the Minimum lethal dose in the data set with SD male and female rats (female) is on record as 720 mg/kg; with SD male and female rats (male) it was 720 mg/kg. For the same compound, the LD50 at 336 h in the data set “in vivo” (female) was 840 mg/kg; in “in vivo” (male), 810 mg/kg. Further, in data set [1], the inhibition in vivo at 10 mg/kg was 37.3 ± 2.4%. In addition, the inhibition in vivo at 30 mg/kg in data set [1] was found to be 41.2 ± 5.4%. In addition, the ED50 in data set [2] stood at 5.1 mg/kg.
`COC(=O)Cc1ccc2c(c1)C(=O)c1ccccc1CN2C` [F, methyl 5,6-dihydro-5-methyl-11-oxodibenz[b,e]azepine-2-acetate]: the inhibition in vivo at 30 mg/kg in data set [1] was 11.8 ± 3.4%.
On to `CN1Cc2ccccc2C(=O)c2ccc(CC(=O)O)cc21` [Compound D, 5,6-dihydro-5-methyl-11-oxodibenz[b,e]azepine-3-acetic acid], for which, in data set [1], the inhibition in vivo at 10 mg/kg is 26.8 ± 2.9% and the inhibition in vivo at 30 mg/kg came out at 36.4 ± 11.9%. For the same compound, in data set [2], the ED50 is 78 mg/kg.
For the compound `CN1Cc2ccccc2C(=O)c2cc(CC(=O)OCCO)ccc21` [K, hydroxyethyl 5,6-dihydro-5-methyl-11-oxodibenz[b,e]azepine-2-acetate], in data set [1], the inhibition in vivo at 30 mg/kg turned out to be 23.5 ± 11.1% and the inhibition in vivo at 90 mg/kg worked out at 30.4 ± 5.5%.
